Reference: US11078467B2 (University of Florida Research Foundation, Incorporated, priority 2016, dated 2021)
Entries after “also recorded” stand apart in the source; their conditions may differ. Read-outs that look alike come from different tables or passages of the source.

Experiments:
[1] = biological target: T1, TxtE (Streptomyces scabiei, UniProt C9ZDC6); test: biochemical; type: binding, S. scabies; parameters: inferred from Ni-NTA purification and the pET28b vector; made in house; host or cells: E. coli BL21 (DE3)-GOLD, pET28b; details: for Interaction with TxtE in spectroscopic analysis (in words): Type I spectral shift
Method: (§1) The ferric heme of enzymes was then saturated with carbon monoxide (Airgas) through bubbling and the spectra of the saturated enzyme solutions were recorded. Immediately, sodium dithionite solution (30 μL, 0.5 M) was added to reduce ferric ion, and reduced spectra were taken subsequently. CO reduced difference spectra of all enzymes were created by subtracting the CO binding spectra from the reduced spectra. Data were further analyzed by Excel. […] Not more than 10 μl of substrate stock solutions prepared in the above buffer were added to the sample cuvette with an interval of 0.5 μl, and the spectra were recorded from 300 nm to 500 nm each time. The equal volume of buffer was added to the reference cuvette. The changes in absorbance (AA) were determined by subtracting the absorbance at ˜420 nm from that at ˜390 nm. Data were then fitted to the equation of ΔA=ΔAmax[L]/(Kd+[L]) using GraphPad Prism 4.

[2] = biological target: T2, TB14 (UniProt C9ZDC6); test: Binding affinities of Trp analogues toward TB14 (spectral shift titration); details: 1.5 μM enzyme, 25 mM Tris-HCl, pH 8.0
T2 construct: 14-aa linker […]; BM3R, reductase domain of P450BM3 (CYP102A1), fusion partner after the linker; inferred from Ni-NTA purification and the pET28b vector; made in house; host or cells: E. coli BL21 (DE3)-GOLD, pET28b-TxtE-BM3R
Method: as §1

[3] = biological target: T1, TxtE; type: biochemical, S. scabies; parameters: inferred from Ni-NTA purification and the pET28b vector; made in house; details: 0.5 mM substrate, 45 min, FIG. 8
Method: (§2) The reactions were prepared and then incubated at 20° C., 300 rpm for 45 minutes. All experiments were repeated at least three times.
(§3) After centrifugation, 10 μl solutions were analyzed by HPLC. […] All reactions were independently repeated at least three times. […] All experiments were performed at least in triplicate.

[4] = biological target: T3, TB14 (UniProt C9ZDC6+P14779); test: Nitration of Trp and its analogues by TB14 (45 min, HPLC); type: biochemical; details: FIG. 8; for Nitration activity of TB14 toward the substrate (in words): 0.5 mM substrate, 45 min
T3 construct: 14-aa linker […]; BM3R, reductase domain of P450BM3 (CYP102A1), fusion partner after the linker; inferred from Ni-NTA purification and the pET28b vector; made in house; host or cells: E. coli BL21 (DE3)-GOLD, pET28b-TxtE-BM3R
Method: as §2, §3

[5] = biological target: T3, TB14; test: Binding affinities of Trp analogues toward TB14 (spectral shift titration); details: for Kd: read-out: TB14 Kd, 1.5 μM enzyme, 25 mM Tris-HCl, pH 8.0; for Interaction with TB14 in spectroscopic analysis (in words): Type I spectral shift
Method: as §1

[6] = read-out: TxtE Kd, 1.5 μM enzyme, 25 mM Tris-HCl, pH 8.0

Structure (SMILES)	Kd [1]	Kd [2]	Kd [1, 6]	further results
N[C@H](CO)Cc1c[nH]c2ccccc12 [L-tryptophanol]	221 ± 32.4 µM	280 ± 43.2 µM		
N[C@@H](Cc1c[nH]c2cc(F)ccc12)C(=O)O (racemic) [Example 6-F-Trp, 6-F-DL-Trp]			73.4 ± 6.06 µM	Nitration activity of TxtE toward the substrate (in words) [3]: good activity; Nitration activity of TB14 toward the substrate (in words) [4]: good activity; Kd [5]: 65.3 ± 4.49 µM
NC(Cc1c[nH]c2cccc(F)c12)C(=O)O (racemic) [Example 4-F-Trp, 4-F-DL-Trp]			189 ± 11.1 µM	Kd [5]: 175 ± 12.9 µM
O=C(O)C(=O)Cc1c[nH]c2ccccc12 [Indole-3-pyruvic acid]			386 ± 42.5 µM	Kd [5]: 478 ± 31.6 µM
O=C(O)C1Cc2c([nH]c3ccccc23)CN1 (stereo not drawn) [2,3,4,9-Tetrahydro-1H-β-carboline-3-carboxynate]	579 ± 44.4 µM	731 ± 86 µM		
N[C@@H](Cc1c[nH]c2ccc(O)cc12)C(=O)O [Example 5-OH-L-Trp, 5-OH-L-Trp]	341 ± 26.4 µM	453 ± 15.5 µM		
NCCc1c[nH]c2ccccc12 [Tryptamine]			68.4 ± 6.19 µM	Kd [5]: 59.8 ± 7.88 µM
CC(N)(Cc1c[nH]c2ccccc12)C(=O)O (racemic) [α-Me-Trp, α-Me-DL-Trp]	100 ± 4.3 µM	94.7 ± 8.52 µM		
N[C@@H](Cc1c[nH]c2ccccc12)C(=O)O [L-Trp, L-tryptophan]		17.4 ± 0.95 µM	24.8 ± 1.11 µM	
Cc1cccc2[nH]cc(CC(N)C(=O)O)c12 (racemic) [Example 4-Me-Tr, 4-Me-DL-Tryptophan]	9.58 ± 0.36 µM	13.5 ± 0.98 µM		
Cc1cccc2[nH]cc(CC(N)C(=O)O)c12 (racemic) [Example 4-Me-DL-Trp]				Interaction with TxtE in spectroscopic analysis (in words) [1]: more tightly than 4-F-DL-Trp; Nitration activity of TxtE toward the substrate (in words) [3]: good activity; Nitration activity of TB14 toward the substrate (in words) [4]: good activity; Nitration by TB14 favoured over 4-F-DL-Trp [4]: about 8 times; Interaction with TB14 in spectroscopic analysis (in words) [5]: more tightly than 4-F-DL-Trp
N[C@@H](Cc1c[nH]c2ccc(F)cc12)C(=O)O [Example 5-F-L-Trp, 5-F-L-Trp]			84.2 ± 4.37 µM	Nitration activity of TxtE toward the substrate (in words) [3]: good activity; also recorded: best substrate of TxtE; Nitration activity of TB14 toward the substrate (in words) [4]: good activity; also recorded: comparable to Trp; Kd [5]: 77.5 ± 5.74 µM
c1ccc2[nH]ccc2c1 [indole]				Interaction with TxtE in spectroscopic analysis (in words) [1]: no detectable level of interaction; Interaction with TB14 in spectroscopic analysis (in words) [5]: no detectable level of interaction
N[C@H](Cc1c[nH]c2ccccc12)C(=O)O [D-Trp]	432 ± 17.2 µM	470 ± 25.3 µM		
Cc1cccc2c(CC(N)C(=O)O)c[nH]c12 (racemic) [Example 7-Me-Trp, 7-Me-DL-Trp]	12.9 ± 0.99 µM	10.6 ± 0.75 µM		
N[C@@H](Cc1c[nH]c2ncccc12)C(=O)O [7-Azatryptophan]		25.5 ± 0.58 µM	16.8 ± 0.28 µM	
O=C(O)C(O)Cc1c[nH]c2ccccc12 (stereo not shown) [Indole-3-lactic acid]	> 7000 µM			
N[C@@H](Cc1c[nH]c2ccccc12)C(=O)O [Trp]				Nitration activity of TxtE toward the substrate (in words) [3]: nitrated; Nitration activity of TB14 toward the substrate (in words) [4]: nitrated
COc1ccc2[nH]cc(CC(N)C(=O)O)c2c1 (racemic) [Example 5-MeO-Trp, 5-MeO-DL-Trp]	29.1 ± 1.16 µM	25.8 ± 1.84 µM		
NCCc1c[nH]c2ccc(O)cc12 [Serotonin]			322 ± 31.4 µM	Kd [5]: 310 ± 38.5 µM
O=C(O)Cc1c[nH]c2ccccc12 [3-Indoleacetic acid]	> 17000 µM			
Cc1ccc2[nH]cc(CC(N)C(=O)O)c2c1 (racemic) [Example 5-Me-Trp, 5-Me-DL-Trp]	34.7 ± 0.99 µM	29.9 ± 1.03 µM		Nitration activity of TxtE toward the substrate (in words) [3]: good activity; Nitration activity of TB14 toward the substrate (in words) [4]: good activity
O=C(O)c1c[nH]c2ccccc12 [Indole-3-carboxylic acid]	> 9000 µM			
